Test results reported in patent US7998978B2 (Pfizer Inc., priority 2006, dated 2011).

What follows are compounds tested against T1, JNK1α1 (Homo sapiens, UniProt P45983) (assay: Coupled spectrophotometric (PK/LDH) JNK1α1 assay: % inhibition and Ki determination). Settings: @1 uM; read-out: % Inhibition JNK-1.
T1 construct: catalytic domain containing amino acids 1-364 and N-terminal hexahistidine tag; hexahistidine (His6) (N); made in house; host or cells: E. coli BL21 (DE3)
T1 sequence (P45983 1-364): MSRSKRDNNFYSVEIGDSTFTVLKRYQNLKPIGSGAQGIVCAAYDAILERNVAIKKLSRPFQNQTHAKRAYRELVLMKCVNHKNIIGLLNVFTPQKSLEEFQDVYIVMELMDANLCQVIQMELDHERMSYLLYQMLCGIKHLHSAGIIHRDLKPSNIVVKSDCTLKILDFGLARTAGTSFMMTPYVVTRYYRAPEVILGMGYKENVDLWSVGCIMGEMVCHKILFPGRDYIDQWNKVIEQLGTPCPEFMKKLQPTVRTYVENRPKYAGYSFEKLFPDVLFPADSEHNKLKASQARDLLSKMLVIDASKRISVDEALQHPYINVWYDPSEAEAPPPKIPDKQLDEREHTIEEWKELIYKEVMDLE
Type: biochemical
Protocol: % Inhibition and Ki Determination
A coupled spectrophotometric assay, coupling JNK1α1 activity to the oxidation of β-NADH to NAD+ through the action of pyruvate kinase (PK) and lactic dehydrogenase (LDH), was used to determine the potency (percent inhibition at 1 or 10 μM or Ki) of compounds against JNK1α1 (Genbank Accession Number: L26318). […] The reaction was monitored by following the decrease in absorbance at 340 nm. The initial reaction rate was determined by the slope of the change in absorbance. To calculate percent inhibition the rate of the reaction in the presence of 1 or 10 μM compound was compared to the rate of the reaction with only DMSO multiplied by 100 percent. Note, the background rate of the above reaction in the presence of 10 μM PHA-00738186 was subtracted from all rates. […] Y=(−X+Eo−(Ki*(1+A/Km))+((X−Eo+(Ki*(1+A/Km)))^2+4*Eo*(Ki*(1+A/Km)))^0.5)*(Vm*A/(Km+A)/(2*Eo)) Formula: • Parameters: Eo, Ki, A, Km, Vo • Y is initial reaction velocity; • X is inhibitor concentration; • A is [ATP]; • Ki is inhibition constant; • Vm is Vmax; • Eo is total (initial) enzyme concentration; • Km is ATP Km;
The compounds were prepared in 100% DMSO at a 40× concentration. For percent inhibition experiments this would be 400 or 40 μM for 10 and 1 μM final concentration, respectively. For the Ki determination 3× serial dilutions were made starting at 4 mM (100 μM at 1×) in DMSO. A total of 11 concentrations were used for the analysis. The compounds were added to the reaction plate first. Next, a solution containing the HEPES, MgCl2, DTT, peptide substrate, NADH, PEP, PK/LDH enzyme, and JNK1α1—364nHis enzyme was added to the assay plate. The plate was incubated at room temperature for 15 minutes. Then the plate was warmed to 30° C. for 5 minutes. The reaction was initiated with the addition of ATP. The reaction was run in a plate reader at 30° C. for 20 minutes with absorbance readings made about every 10 seconds.
The column with “#” heading refers to compound number as exemplified in the Examples section. The column with “Ki” heading refers to Ki (in nM). The column with “% Inhibition” heading refers to percent inhibition of JNK-1 at 1 μM or 10 μM (in %) unless otherwise stated. ND refers to no data was taken.
For `O=C(NC1(CO)CCCC1)c1ccc2cnc(NC3CCC3)nc2c1` [Example 422, 2-(cyctobutylamino)-N-[1-(hydroxymethyl)cyclopentyl]quinazoline-7-carboxamide], the inhibition at 1 µM was 13%. In the case of `CN1CCCC(COc2ccc3cnc(N[C@H]4CC[C@H](O)CC4)nc3c2)C1` (stereo partly drawn) [Example 270, trans-4-({7-[(1-methylpiperidin-3-yl)methoxy]quinazolin-2-yl}amino)cyclohexanol], the inhibition at 1 µM is reported as 40%. Compound `CC(C)Nc1ncc2ccc(C(=O)N[C@@H]3COC[C@H]3O)cc2n1` [Example 432, N-((3R,4S)-4-hydroxytetrahydrofuran-3-yl]-2-(isopropylamino)quinazoline-7-carboxamide] has an inhibition at 1 µM of 15%. `Cn1nc(-c2ccncc2)cc1NC(=O)c1cccc2cnc(N[C@H]3CC[C@H](O)CC3)nc12` [Example 317, 2-[(trans-4-hydroxycyclohexyl)amino]-N-(1-methyl-3-pyridin-4-yl-1H-pyrazol-5-yl)quinazoline-8-carboxamide] was tested, and the inhibition at 1 µM was 31%. For `CCOCC(C)Oc1ccc2cnc(N[C@H]3CC[C@H](O)CC3)nc2c1` (stereo partly drawn) [Example 275, trans-4-{[7-(2-ethoxy-1-methylethoxy)quinazolin-2-yl]amino}cyclohexanol], the inhibition at 1 µM was 52%. Work on `O=C(NCCn1ccnc1)c1cccc2cnc(N[C@H]3CC[C@H](O)CC3)nc12` [Example 491, 2-[(trans-4-hydroxycycbohexyl)amino]-N-[2-(1H-imidazol-1-yl)ethyl]quinazoline-8-carboxamide] yielded an inhibition at 1 µM of 13%. `O=C(NC1(CO)CCCC1)c1ccc2cnc(NC3CCCC3)nc2c1` [Example 421, 2-(cyclopentylamino)-N-[1-(hydroxymethyl)cyclopentyl]quinazoline-7-carboxamide] gave an inhibition at 1 µM of 15%.

Same assay, conditions: @10 uM; read-out: % Inhibition JNK-1
Compound `CS(=O)(=O)Nc1ccc(CNc2cc3cc(-c4cn[nH]c4)ccc3cn2)cc1` [Example 237, N-[4-({[6-(1H-pyrazol-4-yl)isoquinolin-3-yl]amino}methyl)phenyl]methanesulfon-amide] has an inhibition at 10 µM of 41%. In the case of `CC(C)(CO)NC(=O)c1ccc2cnc(NC3CCC3)nc2c1` [Example 439, 2-(cyclobutylamino)-N-(2-hydroxy-1,1-dimethylethyl)quinazoline-7-carboxamide], the inhibition at 10 µM is reported as 44%. `COc1ccccc1-c1ncc(CNc2cc3cc(-c4cn[nH]c4)ccc3cn2)cn1` [Example 232, N-{[2-(2-methoxyphenyl)pyrimidin-5-yl]methyl}-6-(1H-pyrazol-4-yl)isoquinolin-3-amine] was tested, and the inhibition at 10 µM was 46%.

Same assay, conditions: JNK-1
`CCN[C@H]1CC[C@H](Nc2ncc3cccc(OC4CCOC4)c3n2)CC1` (stereo partly drawn) [Example 192, trans-N-ethyl-N′-[8-(tetrahydrofuran-3-yloxy)quinazolin-2-yl]cyclohexane-1,4-diamine] was tested, and the Ki was 1130 nM. `C[C@@H](CO)NC(=O)c1ccc2cnc(N[C@H]3CC[C@H](O)CC3)nc2c1` [Example 403, 2-[(trans-4-hydroxycyclohexyl)amino]-N-[(1S)-2-hydroxy-1-methylethyl]quinazoline-7-carboxamide] gave a Ki of 637 nM. Work on `O=C(N[C@H]1CC[C@@H](CO)CC1)c1cccc2cnc(N[C@H]3CC[C@H](O)CC3)nc12` [Example 466, 2-[(trans-4-hydroxycyclohexyl)amino]-N-[cis-4-(hydroxymethyl)cyclohexyl]quinazoline-8-carboxamide] yielded a Ki of 962 nM. `CC(C)(CN1CCOCC1)NC(=O)c1ccc2cnc(N[C@H]3CC[C@H](O)CC3)nc2c1` [Example 89, N-(1,1-dimethyl-2-morpholin-4-ylethyl)-2-[(trans-4-hydroxycyclohexyl)amino]quinazoline-7-carboxamide] was tested, and the Ki was 269 nM. `O=C(NCCN1CCOCC1)c1ccc2cnc(N[C@H]3CC[C@H](O)CC3)nc2c1` [Example 61, 2-[(trans-4-hydroxycyclohexyl)amino]-N-(2-morpholin-4-ylethyl)quinazoline-7-carboxamide] gave a Ki of 525 nM. With `O=C(NCCCn1cccn1)c1ccc2cnc(N[C@H]3CC[C@H](O)CC3)nc2c1` [Example 339, 2-[(trans-4-hydroxycyclohexyl)amino]-N-[3-(1H-pyrazol-1-yl)propyl]quinazolin-7-carboxamide] the Ki was 801 nM. `COc1ccc2[nH]c(C)c(CC(=O)Nc3cc4cc(-c5cn[nH]c5)ccc4cn3)c2c1` [Example 2, 2-(5-methoxy-2-methyl-1H-indol-3-yl)-N-[6-(1H-pyrazol-4-yl)isoquinolin-3-yl]acetamide] was tested, and the Ki was 77 nM. Compound `CCC(=O)N[C@H]1CC[C@H](Nc2ncc3cccc(OC4CCOC4)c3n2)CC1` (stereo partly drawn) [Example 185, N-(trans-4-{[8-(tetrahydrofuran-3-yloxy)quinazolin-2-yl]amino}cyclohexyl)propanamide] has a Ki of 885 nM. `CC[C@@H](CO)NC(=O)c1cccc2cnc(N[C@H]3CC[C@H](O)CC3)nc12` [Example 441, 2-[(trans-4-hydroxycyclohexyl)amino]-N-[(1S)-1-(hydroxymethyl)propyl]quinazoline-8-carboxamide] was tested, and the Ki was 57 nM. Compound `O=C(NCC1CCOC1)c1cccc2cnc(N[C@H]3CC[C@H](O)CC3)nc12` (stereo partly drawn) [Example 107, 2-[(trans-4-hydroxycyclohexyl)amino]-N-(tetrahydrofuran-3-ylmethyl)quinazoline-8-carboxamide] has a Ki of 250 nM. `CC(C)(CO)NC(=O)c1cccc2cnc(N[C@H]3CC[C@H](O)CC3)nc12` [Example 104, 2-[(trans-4-hydroxycyclohexyl)amino]-N-(2-hydroxy-1,1-dimethylethyl)quinazoline-8-carboxamide] gave a Ki of 66 nM. `CC(C)(CO)NC(=O)c1ccc2cnc(NC3CCCCC3)nc2c1` [Example 413, 2-(cyclohexylamino)-N-(2-hydroxy-1,1-dimethylethyl)quinazoline-7-carboxamide] was tested, and the Ki was 1270 nM. `O=C(N[C@H](CO)c1ccccc1)c1ccc2cnc(N[C@H]3CC[C@H](O)CC3)nc2c1` [Example 372, 2-[(trans-4-hydroxycyclohexyl)amino]-N-[(1S)-2-hydroxy-1-phenylethyl]quinazoline-7-carboxamide] gave a Ki of 73.5 nM. `O=C(NC1CCCCC1O)c1ccc2cnc(N[C@H]3CC[C@H](O)CC3)nc2c1` (stereo partly drawn) [Example 342, N-(2-hydroxycyclohexyl)-2-[(trans-4-hydroxycyclohexyl)amino]quinazoline-7-carboxamide] gave a Ki of 839 nM. Compound `CC(=O)N1CCC(NC(=O)c2ccc3cnc(N[C@H]4CC[C@H](O)CC4)nc3c2)CC1` [Example 365, N-(1-acetylpiperidin-4-yl)-2-[(trans-4-hydroxycyclohexyl)amino]quinazoline-7-carboxamide] has a Ki of 2060 nM. Compound `CC(=O)N[C@H]1CC[C@H](Nc2ncc3cccc(C(=O)NCC(C)(C)O)c3n2)CC1` [Example 135, 2-{[trans-4-(acetylamino)cyclohexyl]amino}-N-(2-hydroxy-2-methylpropyl)quinazoline-8-carboxamide] has a Ki of 300 nM. With `O[C@H]1CC[C@H](Nc2ncc3cccc(OCC4CCOC4)c3n2)CC1` (stereo partly drawn) [Example 249, trans-4-{[8-(tetrahydrofuran-3-ylmethoxy)quinazolin-2-yl]amino}cyclohexanol] the Ki was 323 nM. For `CC(C)Nc1ncc2cccc(OC3CCOCC3)c2n1` [Example 170, N-isopropyl-8-(tetrahydro-2H-pyran-4-yloxy)quinazolin-2-amine], the Ki was 2150 nM. Work on `CC(C)C(=O)N[C@H]1CC[C@H](Nc2ncc3cccc(OC4CCOC4)c3n2)CC1` (stereo partly drawn) [Example 186, 2-methyl-N-(trans-4-{[8-(tetrahydrofuran-3-yloxy)quinazolin-2-yl]amino)cyclohexyl)propanamide] yielded a Ki of 607 nM. Work on `O=C(Nc1cc2cc(-c3cn[nH]c3)ccc2cn1)C1NCc2ccccc21` (stereo not drawn) [Example 14, N-[6-(1H-pyrazol-4-yl)isoquinolin-3-yl]isoindoline-1-carboxamide] yielded a Ki of over 50 nM. `CC(C)[C@@H](CO)NC(=O)c1ccc2cnc(NC3CCCC3)nc2c1` [Example 407, 2-(cyclopentylamino)-N-[(1S)-1-(hydroxymethyl)-2-methylpropyl]quinazoline-7-carboxamide] gave a Ki of 735 nM. Compound `O=C(NCC1(O)CCOCC1)c1ccc2cnc(N[C@H]3CC[C@H](O)CC3)nc2c1` [Example 360, 2-[(trans-4-hydroxycyclohexyl)amino]-N-[(4-hydroxytetrahydro-2H-pyran-4-yl)methyl]quinazoline-7-carboxamide] has a Ki of 1730 nM. Work on `O=C(CC(c1ccccc1)c1ccccc1)Nc1cc2cc(-c3cn[nH]c3)ccc2cn1` [Example 55, 3,3-diphenyl-N-[6-(1H-pyrazol-4-yl)isoquinolin-3-yl]propanamide] yielded a Ki of 5 nM.
